{"source": "patent US20230028880A1", "about": "“CD38-BINDING AGENTS AND USES THEREOF” (Biohaven Therapeutics Ltd., priority 2019, published 2023)", "key": {"Daudi cells": {"test_system": "Daudi cells", "experiment": "Ternary binding assay: recruitment of PE-labeled human IgG1k to Daudi cells (flow cytometry, MFI)", "type": "cell-based", "details": "duplicate columns", "outline": "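Daudi cells, 100,000 per well, were suspended in flow buffer (1% BSA, 0.5 mM EDTA, PBS) containing 11.1 ug/mL PE-labeled human IgG1k and incubated with ½-log compound dilutions (8–12 concentrations) for 30 min at 37 °C. After two washes with 0.5% Tween 20 buffer, mean fluorescence was read by flow cytometry and fitted with a four-parameter variable-slope model.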"}, "[1]": {"test_system": "multiple myeloma patient bone marrow plasma cells (CD38+ CD138+)", "experiment": "Patient bone marrow with autologous CIML NK cells: reduction of plasma cells", "type": "cell-based, human", "details": "4 hr, IVIG 10 ug/ml (FIG. 7)", "procedure": "(§1) Patient bone marrow (3 ml) and blood (20 ml) were shipped at ambient temperature from Discovery Biosciences. Bone marrow was diluted 1:1 with PBS, and […] of bone marrow-PBS mixture was aliquoted into 96 deep well plates. Bone marrow cells were incubated overnight until CIML cells were added next day.\n(§2) PBMC were isolated from blood by Ficoll density gradient centrifugation. PBMC were centrifuged at 400 g for 10 min and re-suspended in EasySep buffer. NK cells were isolated using NK cell isolation kits from […] Technologies according to kit's manufacturers' instructions.\n(§3) NK cells were re-suspended at 1×10^6 cells/ml in XVIVO15, 10% Human Serum, IL-15 (50 ng/ml), IL-12 (10 ng/ml), IL-18 (50 ng/ml), and incubated for 18 hrs. Following overnight incubation with cytokines, NK cells were washed twice with PBS 5% Human Serum Albumin, counted and re-suspended at a cell density of 2×10^5 cells/ml of XVIVO15 media. Twenty microliters (4000 cells) were added per each well containing 50 µl of bone marrow: PBS mixture. […] Control wells received XVIVO15 media. Well contents were mixed by pipetting up and down and plates were centrifuged at 400 g for 1 min.\n(§4) The assay was then incubated for 4 hrs at 37° C. 5% CO2. […] Finally, cells were re-suspended in 200 µl of FACS Buffer and analyzed using Attune Flow Cytometer. Data were analyzed using FlowJo software and graphed using GraphPad Prism."}, "[2]": {"test_system": "CD56+CD138- CIML NK cells", "experiment": "Patient bone marrow with CIML NK cells: NK cell fratricide", "type": "cell-based, human", "details": "CIML NK cells co-incubated with patient bone marrow for 4 hrs (FIG. 8)", "procedure": "as §1, §2, §3, §4"}}, "note": "“And” between values parts separate entries of the source, which are not always exact repeats. Equal values may be shown once. “Also recorded” adds a separate entry of the source."}
{"smiles": "CCCCC[C@@H]1NC(=O)[C@H](CCCNC(=N)N)NC(=O)[C@H](C)NC(=O)CSC[C@@H](C(=O)NCCOCCOCCOCCOCCOCCOCCn2nnc3c2CCC2C(CC3)C2COC(=O)N2CCC(C(=O)NCC(=O)N[C@H](CCC(=O)N[C@H](CCC(=O)N[C@H](CCC(=O)O)C(=O)N[C@H](CCC(=O)N[C@H](CCC(=O)NCC(=O)NCC(=O)N[C@@H](CC(=O)O)C(=O)N[C@H]3CSSC[C@@H](C(=O)N[C@H](C(=O)O)[C@@H](C)O)NC(=O)[C@H](Cc4c[nH]c5ccccc45)NC(=O)[C@H](C(C)C)NC(=O)[C@H](CC(C)C)NC(=O)[C@H](CCC(=O)O)NC(=O)CNC(=O)[C@H](CC(C)C)NC(=O)[C@H](Cc4c[nH]cn4)NC(=O)[C@H](Cc4c[nH]c5ccccc45)NC(=O)[C@H](C)NC3=O)C(=O)O)C(=O)O)C(=O)O)C(=O)O)CC2)NC(=O)[C@H](CC(=O)O)NC(=O)[C@H](CCCCC)NC(=O)[C@H](Cc2ccc(-c3ccccc3)cc2)NC(=O)[C@H](CC(C)C)NC(=O)[C@H](C(C)C)NC(=O)CNC(=O)[C@H](CC(=O)O)NC(=O)[C@H](Cc2c[nH]cn2)NC(=O)[C@H](Cc2ccc(O)cc2)NC1=O", "note": "(stereo partly shown) [I-17]", "values": [{"measurement": "MFI, recruitment of PE-labeled human IgG1k to Daudi cells", "setting": "Daudi cells; compound 0.03 nM", "value": "2516 and 2391"}, {"measurement": "MFI, recruitment of PE-labeled human IgG1k to Daudi cells", "setting": "Daudi cells; compound 0.1 nM", "value": "2322 and 2622"}, {"measurement": "MFI, recruitment of PE-labeled human IgG1k to Daudi cells", "setting": "Daudi cells; compound 0.3 nM", "value": "2387 and 2457"}, {"measurement": "MFI, recruitment of PE-labeled human IgG1k to Daudi cells", "setting": "Daudi cells; compound 1 nM", "value": "3272 and 2451"}, {"measurement": "MFI, recruitment of PE-labeled human IgG1k to Daudi cells", "setting": "Daudi cells; compound 3 nM", "value": "2516 and 2680"}, {"measurement": "MFI, recruitment of PE-labeled human IgG1k to Daudi cells", "setting": "Daudi cells; compound 10 nM", "value": "7119 and 4086"}, {"measurement": "MFI, recruitment of PE-labeled human IgG1k to Daudi cells", "setting": "Daudi cells; compound 30 nM", "value": "3869 and 5244"}, {"measurement": "MFI, recruitment of PE-labeled human IgG1k to Daudi cells", "setting": "Daudi cells; compound 100 nM", "value": "7575 and 6333"}, {"measurement": "MFI, recruitment of PE-labeled human IgG1k to Daudi cells", "setting": "Daudi cells; compound 300 nM", "value": "7514 and 8562"}, {"measurement": "MFI, recruitment of PE-labeled human IgG1k to Daudi cells", "setting": "Daudi cells; compound 1000 nM", "value": "10015 and 9697"}, {"measurement": "MFI, recruitment of PE-labeled human IgG1k to Daudi cells", "setting": "Daudi cells; compound 3000 nM", "value": "9069 and 9922"}, {"measurement": "reduction in the frequencies of CD38+ CD138+ cells in patient bone marrow", "setting": "[1]", "value": "effectively reduced frequency of plasma cells; also recorded: can reduce the number of plasma cells"}, {"measurement": "NK cell numbers / NK cell fratricide", "setting": "[2]", "value": "NK cell numbers did not change; also recorded: No or low level of undesired NK cell fratricide"}]}
